Data taken from ChEMBL document CHEMBL1129422, “Syntheses and structure-activity relationships of the second-generation antitumor taxoids: exceptional activity against drug-resistant cancer cells” (J Med Chem, 1996).

Legend:
Assay type in all cases: functional, cell-based
[1] = test system: A549; test: Concentration required to inhibit growth of human tumor A549 (NSCL) cell line.
[2] = test system: A121; test: Concentration required to inhibit growth of human tumor A121 (ovarian) cell line.
[3] = test system: HT-29; test: Concentration required to inhibit growth of human tumor HT-29 (colon) cell line.
[4] = test system: MCF7; test: Concentration required to inhibit growth of human tumor MCF-7 (breast) cell line.
[5] = test system: MCF7; test: Concentration required to inhibit growth of human tumor […] (breast) cell line.

Row | SMILES | IC50 [1] | IC50 [2] | IC50 [3] | IC50 [4] | IC50 [5]
1 | CCCCCC(=O)O[C@H]1C(=O)[C@@]2(C)[C@H]([C@H](OC(=O)c3ccccc3)[C@]3(O)C[C@H](OC(=O)[C@H](O)[C@H](C=C(C)C)NC(=O)OC(C)(C)C)C(C)=C1C3(C)C)[C@]1(OC(C)=O)CO[C@@H]1C[C@@H]2O | 570 pM | 500 pM | 900 pM | 400 pM | 17300 pM
2 | CC(=O)O[C@@]12CO[C@@H]1C[C@H](O)[C@@]1(C)C(=O)[C@H](OC(=O)C3CC3)C3=C(C)[C@@H](OC(=O)[C@H](O)[C@H](C=C(C)C)NC(=O)OC(C)(C)C)C[C@@](O)([C@@H](OC(=O)c4ccccc4)[C@H]21)C3(C)C | 570 pM | 260 pM | 360 pM | 200 pM | 2100 pM
3 | CC(=O)O[C@H]1C(=O)[C@@]2(C)[C@H]([C@H](OC(=O)c3ccccc3)[C@]3(O)C[C@H](OC(=O)[C@H](O)[C@H](CC(C)C)NC(=O)OC(C)(C)C)C(C)=C1C3(C)C)[C@]1(OC(C)=O)CO[C@@H]1C[C@@H]2O | 980 pM | 3800 pM | 3200 pM | 4000 pM | 36000 pM
4 | CC(=O)O[C@@]12CO[C@@H]1C[C@H](O)[C@@]1(C)C(=O)[C@H](OC(=O)C3CC3)C3=C(C)[C@@H](OC(=O)[C@H](O)[C@H](CC(C)C)NC(=O)OC(C)(C)C)C[C@@](O)([C@@H](OC(=O)c4ccccc4)[C@H]21)C3(C)C | 1100 pM | 510 pM | 780 pM | 510 pM | 4300 pM
5 | CNC(=O)O[C@H]1C(=O)[C@@]2(C)[C@H]([C@H](OC(=O)c3ccccc3)[C@]3(O)C[C@H](OC(=O)[C@H](O)[C@H](C=C(C)C)NC(=O)OC(C)(C)C)C(C)=C1C3(C)C)[C@]1(OC(C)=O)CO[C@@H]1C[C@@H]2O | 700 pM | 1200 pM | 1200 pM | 400 pM | 20000 pM
6 | CO[C@H]1C(=O)[C@@]2(C)[C@H]([C@H](OC(=O)c3ccccc3)[C@]3(O)C[C@H](OC(=O)[C@H](O)[C@H](CC(C)C)NC(=O)OC(C)(C)C)C(C)=C1C3(C)C)[C@]1(OC(C)=O)CO[C@@H]1C[C@@H]2O | 600 pM | 700 pM | 600 pM | 330 pM | 214000 pM
7 | CC(=O)O[C@@]12CO[C@@H]1C[C@H](O)[C@@]1(C)C(=O)[C@H](OC(=O)NC3CCCCC3)C3=C(C)[C@@H](OC(=O)[C@H](O)[C@H](C=C(C)C)NC(=O)OC(C)(C)C)C[C@@](O)([C@@H](OC(=O)c4ccccc4)[C@H]21)C3(C)C | 200 pM | 280 pM | 460 pM | 330 pM | 48000 pM
8 | CO[C@H]1C(=O)[C@@]2(C)[C@H]([C@H](OC(=O)c3ccccc3)[C@]3(O)C[C@H](OC(=O)[C@H](O)[C@H](C=C(C)C)NC(=O)OC(C)(C)C)C(C)=C1C3(C)C)[C@]1(OC(C)=O)CO[C@@H]1C[C@@H]2O | 900 pM | 700 pM | 900 pM | 370 pM | 123000 pM
9 | CC(=O)O[C@@]12CO[C@@H]1C[C@H](O)[C@@]1(C)C(=O)[C@H](OC(=O)CC(C)(C)C)C3=C(C)[C@@H](OC(=O)[C@H](O)[C@H](C=C(C)C)NC(=O)OC(C)(C)C)C[C@@](O)([C@@H](OC(=O)c4ccccc4)[C@H]21)C3(C)C | 500 pM | 340 pM | 500 pM | 400 pM | 10500 pM
10 | CC(=O)O[C@@]12CO[C@@H]1C[C@H](O)[C@@]1(C)C(=O)[C@H](OC(=O)N(C)C)C3=C(C)[C@@H](OC(=O)[C@H](O)[C@H](C=C(C)C)NC(=O)OC(C)(C)C)C[C@@](O)([C@@H](OC(=O)c4ccccc4)[C@H]21)C3(C)C | 600 pM | 300 pM | 500 pM | 130 pM | 4900 pM
11 | CCNC(=O)O[C@H]1C(=O)[C@@]2(C)[C@H]([C@H](OC(=O)c3ccccc3)[C@]3(O)C[C@H](OC(=O)[C@H](O)[C@H](C=C(C)C)NC(=O)OC(C)(C)C)C(C)=C1C3(C)C)[C@]1(OC(C)=O)CO[C@@H]1C[C@@H]2O | 150 pM | 290 pM | 410 pM | 310 pM | 162000 pM
12 | CC(=O)O[C@@]12CO[C@@H]1C[C@H](O)[C@@]1(C)C(=O)[C@H](OC(=O)NC(C)C)C3=C(C)[C@@H](OC(=O)[C@H](O)[C@H](C=C(C)C)NC(=O)OC(C)(C)C)C[C@@](O)([C@@H](OC(=O)c4ccccc4)[C@H]21)C3(C)C | 360 pM | 340 pM | 520 pM | 460 pM | 65000 pM
13 | COC(=O)O[C@H]1C(=O)[C@@]2(C)[C@H]([C@H](OC(=O)c3ccccc3)[C@]3(O)C[C@H](OC(=O)[C@H](O)[C@H](CC(C)C)NC(=O)OC(C)(C)C)C(C)=C1C3(C)C)[C@]1(OC(C)=O)CO[C@@H]1C[C@@H]2O | 350 pM | 180 pM | 440 pM | 280 pM | 6400 pM
14 | CC(=O)O[C@@]12CO[C@@H]1C[C@H](O)[C@@]1(C)C(=O)[C@H](OC(=O)CC(C)C)C3=C(C)[C@@H](OC(=O)[C@H](O)[C@H](C=C(C)C)NC(=O)OC(C)(C)C)C[C@@](O)([C@@H](OC(=O)c4ccccc4)[C@H]21)C3(C)C | 400 pM | 600 pM | 600 pM | 400 pM | 8500 pM
15 | CCCCC(=O)O[C@H]1C(=O)[C@@]2(C)[C@H]([C@H](OC(=O)c3ccccc3)[C@]3(O)C[C@H](OC(=O)[C@H](O)[C@H](C=C(C)C)NC(=O)OC(C)(C)C)C(C)=C1C3(C)C)[C@]1(OC(C)=O)CO[C@@H]1C[C@@H]2O | 600 pM | 600 pM | 600 pM | 500 pM | 30000 pM
16 | CCCNC(=O)O[C@H]1C(=O)[C@@]2(C)[C@H]([C@H](OC(=O)c3ccccc3)[C@]3(O)C[C@H](OC(=O)[C@H](O)[C@H](C=C(C)C)NC(=O)OC(C)(C)C)C(C)=C1C3(C)C)[C@]1(OC(C)=O)CO[C@@H]1C[C@@H]2O | 220 pM | 340 pM | 550 pM | 360 pM | 87000 pM
17 | COC(=O)O[C@H]1C(=O)[C@@]2(C)[C@H]([C@H](OC(=O)c3ccccc3)[C@]3(O)C[C@H](OC(=O)[C@H](O)[C@H](C=C(C)C)NC(=O)OC(C)(C)C)C(C)=C1C3(C)C)[C@]1(OC(C)=O)CO[C@@H]1C[C@@H]2O | 320 pM | 230 pM | 300 pM | 140 pM | 5300 pM
18 | C/C=C/C(=O)O[C@H]1C(=O)[C@@]2(C)[C@H]([C@H](OC(=O)c3ccccc3)[C@]3(O)C[C@H](OC(=O)[C@H](O)[C@H](C=C(C)C)NC(=O)OC(C)(C)C)C(C)=C1C3(C)C)[C@]1(OC(C)=O)CO[C@@H]1C[C@@H]2O | 1700 pM | 450 pM | 600 pM | 260 pM | 3400 pM
19 | CC(=O)O[C@@]12CO[C@@H]1C[C@H](O)[C@@]1(C)C(=O)[C@H](OC(=O)N(C)C)C3=C(C)[C@@H](OC(=O)[C@H](O)[C@H](CC(C)C)NC(=O)OC(C)(C)C)C[C@@](O)([C@@H](OC(=O)c4ccccc4)[C@H]21)C3(C)C | 500 pM | 400 pM | 600 pM | 360 pM | 5800 pM
20 | C=CCNC(=O)O[C@H]1C(=O)[C@@]2(C)[C@H]([C@H](OC(=O)c3ccccc3)[C@]3(O)C[C@H](OC(=O)[C@H](O)[C@H](C=C(C)C)NC(=O)OC(C)(C)C)C(C)=C1C3(C)C)[C@]1(OC(C)=O)CO[C@@H]1C[C@@H]2O | 350 pM | 440 pM | 530 pM | 440 pM | 76000 pM
21 | CCN(CC)C(=O)O[C@H]1C(=O)[C@@]2(C)[C@H]([C@H](OC(=O)c3ccccc3)[C@]3(O)C[C@H](OC(=O)[C@H](O)[C@H](C=C(C)C)NC(=O)OC(C)(C)C)C(C)=C1C3(C)C)[C@]1(OC(C)=O)CO[C@@H]1C[C@@H]2O | 200 pM | 170 pM | 400 pM | 200 pM | 9100 pM
22 | CC(=O)O[C@@]12CO[C@@H]1C[C@H](O)[C@@]1(C)C(=O)[C@H](OC(=O)NC3CCCCC3)C3=C(C)[C@@H](OC(=O)[C@H](O)[C@H](CC(C)C)NC(=O)OC(C)(C)C)C[C@@](O)([C@@H](OC(=O)c4ccccc4)[C@H]21)C3(C)C | 3700 pM | 5000 pM | 5000 pM | 1600 pM | 33000 pM
23 | CCC(=O)O[C@H]1C(=O)[C@@]2(C)[C@H]([C@H](OC(=O)c3ccccc3)[C@]3(O)C[C@H](OC(=O)[C@H](O)[C@H](CC(C)C)NC(=O)OC(C)(C)C)C(C)=C1C3(C)C)[C@]1(OC(C)=O)CO[C@@H]1C[C@@H]2O | 530 pM | 410 pM | 530 pM | 350 pM | 2800 pM
24 | CC(=O)O[C@@]12CO[C@@H]1C[C@H](O)[C@@]1(C)C(=O)[C@H](OC(=O)N3CCOCC3)C3=C(C)[C@@H](OC(=O)[C@H](O)[C@H](C=C(C)C)NC(=O)OC(C)(C)C)C[C@@](O)([C@@H](OC(=O)c4ccccc4)[C@H]21)C3(C)C | 220 pM | 90 pM | 180 pM | 90 pM | 12500 pM
25 | CC(=O)O[C@@]12CO[C@@H]1C[C@H](O)[C@@]1(C)C(=O)[C@H](OC(=O)C3CCCCC3)C3=C(C)[C@@H](OC(=O)[C@H](O)[C@H](C=C(C)C)NC(=O)OC(C)(C)C)C[C@@](O)([C@@H](OC(=O)c4ccccc4)[C@H]21)C3(C)C | 750 pM | 500 pM | 1050 pM | 460 pM | 22300 pM
26 | CC(=O)O[C@H]1C(=O)[C@@]2(C)[C@H]([C@H](OC(=O)c3ccccc3)[C@]3(O)C[C@H](OC(=O)[C@H](O)[C@@H](NC(=O)c4ccccc4)c4ccccc4)C(C)=C1C3(C)C)[C@]1(OC(C)=O)CO[C@@H]1C[C@@H]2O [PACLITAXEL] |  | 6300 pM |  |  | 
